# Results published in PMC7180948, “New Insights into 4-Anilinoquinazolines as Inhibitors of Cardiac Troponin I–Interacting Kinase (TNNi3K)” (Molecules, 2020).
# Assays:
# Experiment in all cases: biochemical
# Set-up in all cases: KINOMEscan competition binding panel (Eurofins DiscoverX), single concentration, % inhibition
# [1] = target: T1, JAK1(JH1domain-catalytic) (Homo sapiens, UniProt P23458); settings: read-out: 7 at 1 µM % inhibition
# T1 construct: JH1domain-catalytic
# How it was run: (§1)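 KINOMEscan binding panel of >400 kinases, run by Eurofins DiscoverX, with compounds tested at a single concentration of 1 µM.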
# [2] = target: T2, RPS6KA4(Kin.Dom.2-C-terminal) (Homo sapiens, UniProt O75676); settings: read-out: 7 at 1 µM % inhibition
# T2 construct: Kin.Dom.2-C-terminal
# T2 sequence (O75676 whole entry): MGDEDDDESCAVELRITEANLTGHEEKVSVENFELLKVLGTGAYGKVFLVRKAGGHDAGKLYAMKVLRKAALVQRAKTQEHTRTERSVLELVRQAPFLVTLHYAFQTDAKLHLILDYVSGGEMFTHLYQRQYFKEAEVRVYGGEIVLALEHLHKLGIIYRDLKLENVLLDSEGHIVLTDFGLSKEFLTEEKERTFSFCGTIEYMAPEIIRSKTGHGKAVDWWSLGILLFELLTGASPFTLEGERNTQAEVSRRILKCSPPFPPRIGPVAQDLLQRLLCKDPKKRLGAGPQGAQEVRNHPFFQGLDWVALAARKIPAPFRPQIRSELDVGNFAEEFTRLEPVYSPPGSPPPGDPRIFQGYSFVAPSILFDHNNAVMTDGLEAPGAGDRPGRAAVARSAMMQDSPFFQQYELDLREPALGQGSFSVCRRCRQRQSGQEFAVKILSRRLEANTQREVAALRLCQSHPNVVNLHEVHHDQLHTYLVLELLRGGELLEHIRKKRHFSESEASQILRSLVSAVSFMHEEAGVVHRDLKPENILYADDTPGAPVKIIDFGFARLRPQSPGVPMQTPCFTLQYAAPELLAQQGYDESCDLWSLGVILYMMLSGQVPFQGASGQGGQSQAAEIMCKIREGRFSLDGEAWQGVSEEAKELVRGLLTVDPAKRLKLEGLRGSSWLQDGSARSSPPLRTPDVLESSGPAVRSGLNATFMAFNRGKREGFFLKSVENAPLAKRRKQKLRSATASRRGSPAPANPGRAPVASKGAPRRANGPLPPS
# How it was run: as §1
# CDC2L1 = target: T3, CDC2L1 (Homo sapiens, UniProt P21127); settings: read-out: 7 at 1 µM % inhibition
# T3 construct: gene CDK11B
# How it was run: as §1
# PLK1 = PLK1 (Homo sapiens, UniProt P53350); settings: read-out: 7 at 1 µM % inhibition
# How it was run: as §1
# ALK(C1156Y) = ALK(C1156Y) (Homo sapiens, UniProt Q9UM73, C1156Y); settings: read-out: 7 at 1 µM % inhibition
# How it was run: as §1
# DCAMKL3 = target: T4, DCAMKL3 (Homo sapiens, UniProt Q9C098); settings: read-out: 7 at 1 µM % inhibition
# T4 construct: gene DCLK3
# T4 sequence (Q9C098 whole entry): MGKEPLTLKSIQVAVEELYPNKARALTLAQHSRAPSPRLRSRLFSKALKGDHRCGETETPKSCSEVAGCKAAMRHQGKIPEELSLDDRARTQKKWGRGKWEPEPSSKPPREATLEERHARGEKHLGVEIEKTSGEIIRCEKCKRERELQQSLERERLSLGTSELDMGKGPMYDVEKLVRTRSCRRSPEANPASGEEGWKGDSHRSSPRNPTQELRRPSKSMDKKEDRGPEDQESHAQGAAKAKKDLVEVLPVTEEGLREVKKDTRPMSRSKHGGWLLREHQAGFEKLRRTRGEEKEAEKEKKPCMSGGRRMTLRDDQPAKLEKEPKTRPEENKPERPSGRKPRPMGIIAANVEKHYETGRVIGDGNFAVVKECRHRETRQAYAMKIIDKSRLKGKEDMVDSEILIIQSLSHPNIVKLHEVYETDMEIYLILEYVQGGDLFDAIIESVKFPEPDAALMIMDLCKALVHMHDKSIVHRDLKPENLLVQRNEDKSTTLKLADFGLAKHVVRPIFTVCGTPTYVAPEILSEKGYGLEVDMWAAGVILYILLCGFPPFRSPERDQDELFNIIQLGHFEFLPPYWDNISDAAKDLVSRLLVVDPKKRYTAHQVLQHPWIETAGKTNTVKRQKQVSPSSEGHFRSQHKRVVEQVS
# How it was run: as §1
# YANK3 = target: T5, YANK3 (Homo sapiens, UniProt Q86UX6); settings: read-out: 7 at 1 µM % inhibition
# T5 construct: gene STK32C
# How it was run: as §1
# MEK3 = target: T6, MEK3 (Homo sapiens, UniProt P46734); settings: read-out: 7 at 1 µM % inhibition
# T6 construct: gene MAP2K3
# T6 sequence (P46734 whole entry): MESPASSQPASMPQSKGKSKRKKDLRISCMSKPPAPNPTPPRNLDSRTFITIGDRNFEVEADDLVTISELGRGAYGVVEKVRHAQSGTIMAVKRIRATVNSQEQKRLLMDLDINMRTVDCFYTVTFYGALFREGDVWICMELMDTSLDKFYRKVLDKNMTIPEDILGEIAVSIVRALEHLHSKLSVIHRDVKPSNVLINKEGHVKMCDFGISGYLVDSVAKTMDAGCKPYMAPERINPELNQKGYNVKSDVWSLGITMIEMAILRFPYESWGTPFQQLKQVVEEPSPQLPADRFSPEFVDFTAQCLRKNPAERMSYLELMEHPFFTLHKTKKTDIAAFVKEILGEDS
# How it was run: as §1
# DCAMKL2 = target: T7, DCAMKL2 (Homo sapiens, UniProt Q8N568); settings: read-out: 7 at 1 µM % inhibition
# T7 construct: gene DCLK2
# How it was run: as §1
# SgK110 = target: T8, SgK110 (Homo sapiens, UniProt P0C264); settings: read-out: 7 at 1 µM % inhibition
# T8 construct: gene SBK3
# How it was run: as §1
# PIK3CA = PIK3CA (Homo sapiens, UniProt P42336); settings: read-out: 7 at 1 µM % inhibition
# Sequence of PIK3CA (P42336 whole entry): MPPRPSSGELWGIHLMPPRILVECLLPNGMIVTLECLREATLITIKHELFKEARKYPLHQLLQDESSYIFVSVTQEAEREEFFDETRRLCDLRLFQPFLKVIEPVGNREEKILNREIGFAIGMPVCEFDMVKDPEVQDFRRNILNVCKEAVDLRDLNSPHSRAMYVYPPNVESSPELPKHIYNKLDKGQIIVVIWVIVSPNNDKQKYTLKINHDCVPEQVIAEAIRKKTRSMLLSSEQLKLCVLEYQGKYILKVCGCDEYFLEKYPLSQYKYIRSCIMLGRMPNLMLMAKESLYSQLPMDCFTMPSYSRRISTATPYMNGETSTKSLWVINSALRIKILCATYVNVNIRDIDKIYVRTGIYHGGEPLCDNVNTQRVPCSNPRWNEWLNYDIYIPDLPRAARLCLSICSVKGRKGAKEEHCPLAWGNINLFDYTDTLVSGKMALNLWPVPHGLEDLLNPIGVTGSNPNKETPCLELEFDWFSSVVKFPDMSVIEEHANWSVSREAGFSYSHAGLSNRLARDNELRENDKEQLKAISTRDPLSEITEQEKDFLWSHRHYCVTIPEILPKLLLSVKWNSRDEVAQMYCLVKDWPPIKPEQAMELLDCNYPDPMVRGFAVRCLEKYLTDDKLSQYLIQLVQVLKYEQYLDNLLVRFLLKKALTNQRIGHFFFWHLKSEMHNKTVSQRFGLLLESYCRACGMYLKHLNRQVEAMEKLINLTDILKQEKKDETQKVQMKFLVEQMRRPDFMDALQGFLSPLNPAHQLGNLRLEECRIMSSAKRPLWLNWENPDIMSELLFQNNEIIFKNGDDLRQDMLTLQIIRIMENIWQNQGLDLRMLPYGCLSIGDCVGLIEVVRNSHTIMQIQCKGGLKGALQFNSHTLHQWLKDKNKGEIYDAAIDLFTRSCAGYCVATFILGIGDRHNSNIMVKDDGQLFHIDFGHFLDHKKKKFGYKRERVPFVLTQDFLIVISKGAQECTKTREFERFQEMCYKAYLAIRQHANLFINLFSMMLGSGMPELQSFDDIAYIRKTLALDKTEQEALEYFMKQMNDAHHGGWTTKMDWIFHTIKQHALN
# How it was run: as §1
# PFTAIRE2 = target: T9, PFTAIRE2 (Homo sapiens, UniProt Q96Q40); settings: read-out: 7 at 1 µM % inhibition
# T9 construct: gene CDK15
# T9 sequence (Q96Q40 whole entry): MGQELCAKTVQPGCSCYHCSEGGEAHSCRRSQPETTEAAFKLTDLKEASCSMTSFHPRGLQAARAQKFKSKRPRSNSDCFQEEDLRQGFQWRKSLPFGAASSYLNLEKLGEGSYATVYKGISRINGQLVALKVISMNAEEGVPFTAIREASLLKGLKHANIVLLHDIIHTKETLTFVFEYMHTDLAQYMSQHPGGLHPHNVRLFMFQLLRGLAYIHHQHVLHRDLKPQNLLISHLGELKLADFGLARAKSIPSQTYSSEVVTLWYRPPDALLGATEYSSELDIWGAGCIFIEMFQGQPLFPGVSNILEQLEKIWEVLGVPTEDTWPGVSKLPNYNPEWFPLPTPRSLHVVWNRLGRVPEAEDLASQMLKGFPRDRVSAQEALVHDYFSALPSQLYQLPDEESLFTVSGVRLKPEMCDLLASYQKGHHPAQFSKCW
# How it was run: as §1
# VPS34 = target: T10, VPS34 (Homo sapiens, UniProt Q8NEB9); settings: read-out: 7 at 1 µM % inhibition
# T10 construct: gene PIK3C3
# How it was run: as §1
# MRCKB = target: T11, MRCKB (Homo sapiens, UniProt Q9Y5S2); settings: read-out: 7 at 1 µM % inhibition
# T11 construct: gene CDC42BPB
# How it was run: as §1
# TRKC = target: T12, TRKC (Homo sapiens, UniProt Q16288); settings: read-out: 7 at 1 µM % inhibition
# T12 construct: gene NTRK3
# How it was run: as §1
# FLT3(D835Y) = FLT3(D835Y) (Homo sapiens, UniProt P36888, D835Y); settings: read-out: 7 at 1 µM % inhibition
# How it was run: as §1
# WNK4 = WNK4 (Homo sapiens, UniProt Q96J92); settings: read-out: 7 at 1 µM % inhibition
# How it was run: as §1
# PFPK5(P.falciparum) = target: T13, PFPK5(P.falciparum) (Plasmodium falciparum, UniProt P61075); settings: read-out: 7 at 1 µM % inhibition (pathogen kinases)
# T13 construct: gene CRK2
# T13 sequence (P61075 whole entry): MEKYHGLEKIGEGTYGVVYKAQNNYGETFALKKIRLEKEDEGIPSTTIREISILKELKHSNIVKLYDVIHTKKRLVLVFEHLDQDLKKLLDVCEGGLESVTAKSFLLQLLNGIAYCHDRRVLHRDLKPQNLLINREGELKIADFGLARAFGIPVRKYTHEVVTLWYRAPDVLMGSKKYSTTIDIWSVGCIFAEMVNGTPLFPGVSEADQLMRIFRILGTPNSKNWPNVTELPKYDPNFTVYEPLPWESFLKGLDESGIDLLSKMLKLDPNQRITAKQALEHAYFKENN
# How it was run: as §1
# FER = FER (Homo sapiens, UniProt P16591); settings: read-out: 7 at 1 µM % inhibition
# Sequence of FER (P16591 whole entry): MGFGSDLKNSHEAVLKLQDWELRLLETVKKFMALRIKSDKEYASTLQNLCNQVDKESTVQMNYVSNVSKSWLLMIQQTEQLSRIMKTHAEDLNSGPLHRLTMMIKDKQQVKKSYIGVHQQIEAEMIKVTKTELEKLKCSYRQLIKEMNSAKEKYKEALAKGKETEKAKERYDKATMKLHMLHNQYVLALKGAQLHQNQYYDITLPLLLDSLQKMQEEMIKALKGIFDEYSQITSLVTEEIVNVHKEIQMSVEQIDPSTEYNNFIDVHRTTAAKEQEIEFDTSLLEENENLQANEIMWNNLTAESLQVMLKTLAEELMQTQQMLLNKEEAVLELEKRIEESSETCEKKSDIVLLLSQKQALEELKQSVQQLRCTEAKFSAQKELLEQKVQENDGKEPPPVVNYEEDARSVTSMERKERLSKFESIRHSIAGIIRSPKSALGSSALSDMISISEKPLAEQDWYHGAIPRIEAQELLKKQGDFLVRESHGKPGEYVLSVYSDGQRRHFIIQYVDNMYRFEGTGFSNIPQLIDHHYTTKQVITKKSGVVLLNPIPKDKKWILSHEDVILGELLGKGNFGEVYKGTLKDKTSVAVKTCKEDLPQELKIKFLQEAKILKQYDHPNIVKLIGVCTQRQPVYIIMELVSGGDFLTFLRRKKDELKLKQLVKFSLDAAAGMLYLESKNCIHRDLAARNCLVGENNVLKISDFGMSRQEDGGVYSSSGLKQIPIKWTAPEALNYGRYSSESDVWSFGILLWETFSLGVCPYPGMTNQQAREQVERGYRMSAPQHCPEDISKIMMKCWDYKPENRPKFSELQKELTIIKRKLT
# How it was run: as §1
# RIPK1 = RIPK1 (Homo sapiens, UniProt Q13546); settings: read-out: 7 at 1 µM % inhibition
# Sequence of RIPK1 (Q13546 whole entry): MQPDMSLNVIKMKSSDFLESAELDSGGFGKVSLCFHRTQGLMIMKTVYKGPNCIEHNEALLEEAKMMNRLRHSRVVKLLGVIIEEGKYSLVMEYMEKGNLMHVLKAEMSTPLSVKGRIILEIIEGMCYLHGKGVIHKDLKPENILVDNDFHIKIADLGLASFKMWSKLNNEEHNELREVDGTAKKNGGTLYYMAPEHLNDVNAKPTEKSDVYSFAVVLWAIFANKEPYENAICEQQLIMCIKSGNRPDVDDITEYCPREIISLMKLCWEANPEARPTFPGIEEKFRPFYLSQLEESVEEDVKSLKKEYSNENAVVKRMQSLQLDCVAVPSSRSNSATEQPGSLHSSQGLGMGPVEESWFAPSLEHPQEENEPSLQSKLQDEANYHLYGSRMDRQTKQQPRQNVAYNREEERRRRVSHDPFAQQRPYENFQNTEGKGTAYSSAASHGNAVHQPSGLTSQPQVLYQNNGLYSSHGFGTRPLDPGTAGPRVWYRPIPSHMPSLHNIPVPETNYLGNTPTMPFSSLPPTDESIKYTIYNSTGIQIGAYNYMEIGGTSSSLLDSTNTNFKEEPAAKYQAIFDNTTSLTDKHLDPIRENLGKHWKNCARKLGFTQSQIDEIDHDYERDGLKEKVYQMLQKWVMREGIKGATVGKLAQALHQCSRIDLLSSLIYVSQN
# How it was run: as §1
# AMPK-alpha1 = target: T14, AMPK-alpha1 (Homo sapiens, UniProt Q13131); settings: read-out: 7 at 1 µM % inhibition
# T14 construct: gene PRKAA1
# How it was run: as §1
# BIKE = target: T15, BIKE (Homo sapiens, UniProt Q9NSY1); settings: read-out: 7 at 1 µM % inhibition
# T15 construct: gene BMP2K
# How it was run: as §1
# FLT3(K663Q) = FLT3(K663Q) (Homo sapiens, UniProt P36888, K663Q); settings: read-out: 7 at 1 µM % inhibition
# How it was run: as §1
compound,measurement,setting,value
"CNS(=O)(=O)c1ccc(N(C)C)c(Nc2ncnc3cc(OC)c(OC)cc23)c1 [compound 7, 3-((6,7-dimethoxyquinazolin-4-yl)amino)-4-(dimethylamino)-N-methylbenzenesulfonamide]",inhibition at 1 µM,[1],0%
same,inhibition at 1 µM,[2],9%
same,inhibition at 1 µM,CDC2L1,0%
same,inhibition at 1 µM,PLK1,0%
same,inhibition at 1 µM,ALK(C1156Y),0%
same,inhibition at 1 µM,DCAMKL3,15%
same,inhibition at 1 µM,YANK3,0%
same,inhibition at 1 µM,MEK3,4%
same,inhibition at 1 µM,DCAMKL2,0%
same,inhibition at 1 µM,SgK110,0%
same,inhibition at 1 µM,PIK3CA,51%
same,inhibition at 1 µM,PFTAIRE2,0%
same,inhibition at 1 µM,VPS34,18%
same,inhibition at 1 µM,MRCKB,0%
same,inhibition at 1 µM,TRKC,0%
same,inhibition at 1 µM,FLT3(D835Y),13%
same,inhibition at 1 µM,WNK4,0%
same,inhibition at 1 µM,PFPK5(P.falciparum),6%
same,inhibition at 1 µM,FER,0%
same,inhibition at 1 µM,RIPK1,0%
same,inhibition at 1 µM,AMPK-alpha1,0%
same,inhibition at 1 µM,BIKE,0%
same,inhibition at 1 µM,FLT3(K663Q),7%
